Reference: patent US20060293307A1, “Oxazolidinone derivatives as antimicrobials” (priority 2002, published 2006)
Converted amounts (≈) assume the structure as drawn.

Experiments:
Test in all cases: MIC, agar incorporation method
E. faecalis 29212 = type: cell-based; settings: S. No. 17, E. faecalis 29212
S. pyogenes 19615 = type: cell-based, Streptococcus pyogenes; settings: S. No. 51, S. pyogenes 19615
S. haemo ATCC 29970 = type: cell-based; settings: S. No. 15, S. haemo ATCC 29970
S. aureus (MRSA) ST450 = type: cell-based, Staphylococcus aureus; settings: S. No. 6, S. aureus (MRSA) ST450
S. pneumoniae 1256 = type: cell-based, Streptococcus pneumoniae; settings: S. No. 56, S. pneumoniae 1256
S. pneumoniae 1275 = type: cell-based, Streptococcus pneumoniae; settings: S. No. 57, S. pneumoniae 1275
E. faecalis 21777 = type: cell-based; settings: S. No. 18, E. faecalis 21777
S. pneumoniae AB 29 = type: cell-based, Streptococcus pneumoniae; settings: S. No. 46, S. pneumoniae AB 29
S. pneumoniae AB 17 = type: cell-based, Streptococcus pneumoniae; settings: S. No. 40, S. pneumoniae AB 17
S pneumoniae 1294. = type: cell-based, Streptococcus pneumoniae; settings: S. No. 55, S pneumoniae 1294.
S. epidermidis 358 = type: cell-based, Staphylococcus epidermidis; settings: S. No. 14, S. epidermidis 358
[1] = system: Serratia marcescens 12999; type: cell-based; settings: S. No. 29, Serratia marcescens 12999
S. aureus (Smith 49951) = type: cell-based, Staphylococcus aureus; settings: S. No. 9, S. aureus (Smith 49951)
S. pneumoniae AB-3 = type: cell-based, Streptococcus pneumoniae; settings: S. No. 32, S. pneumoniae AB-3
S. pneumoniae CS1221 = type: cell-based, Streptococcus pneumoniae; settings: S. No. 34, S. pneumoniae CS1221
S. pneumoniae AB 22 = type: cell-based, Streptococcus pneumoniae; settings: S. No. 42, S. pneumoniae AB 22
S. pneumoniae ATCC 49619 = type: cell-based, Streptococcus pneumoniae; settings: S. No. 48, S. pneumoniae ATCC 49619
S. aureus ATCC29213 = type: cell-based, Staphylococcus aureus; settings: S. No. 2, S. aureus ATCC29213
S. pyogenes 25147 = type: cell-based, Streptococcus pyogenes; settings: S. No. 52, S. pyogenes 25147
[2] = system: S. epidermidis (MRSE)32965; type: cell-based, Staphylococcus epidermidis; settings: S. No. 13, S. epidermidis (MRSE)32965
E. faecium 398(VRE) = type: cell-based, Enterococcus faecium; settings: S. No. 22, E. faecium 398(VRE)
(MRSA) 562 = type: cell-based, Staphylococcus aureus; settings: S. No. 8, (MRSA) 562
S. pneumoniae CS 1687 = type: cell-based, Streptococcus pneumoniae; settings: S. No. 44, S. pneumoniae CS 1687
S. pneumoniae AB-2 = type: cell-based, Streptococcus pneumoniae; settings: S. No. 31, S. pneumoniae AB-2
S. pneumoniae AB 34 = type: cell-based, Streptococcus pneumoniae; settings: S. No. 49, S. pneumoniae AB 34
E. faecalis SP 346 (VRE) = type: cell-based; settings: S. No. 20, E. faecalis SP 346 (VRE)
Salmonella 205 = type: cell-based; settings: S. No. 26, Salmonella 205
Description: The compounds of the invention display antibacterial activity when tested by the agar incorporation method. The following minimum inhibitory concentrations (μg/ml) were obtained for representative compounds of the invention which are given below in the following tables.
Briefly, the compounds were dissolved in DMSO and doubling dilution of the compounds were incorporated into Meer Hilton agar before solidification. Inoculum was prepared by suspending 4 to 5 colonies into 5 ml of normal saline solution and adjusting the turbidity to 0.5 Macfarland turbidity standard tables (1.5×10^8 CFU/ml), after appropriate dilutions, 10^4 CFU/spot was transfered into the surface of dried plate and incubated for 18 hours (24 hours for MRSN studies). The concentration showing no growth of the inoculated culture was recorded as the MIC. Appropriate ATCC standard strains were simultaneously tested and result recorded only when the MIC's against standard antibiotics were within the acceptable range.

S. pneumoniae AB 30 = type: cell-based, Streptococcus pneumoniae; settings: S. No. 47, S. pneumoniae AB 30
S. pneumoniae AB 25 = type: cell-based, Streptococcus pneumoniae; settings: S. No. 45, S. pneumoniae AB 25
S. aureus SG 511 = type: cell-based, Staphylococcus aureus; settings: S. No. 3, S. aureus SG 511
P. aeruginosa ATCC 27853 = type: cell-based; settings: S. No. 28, P. aeruginosa ATCC 27853

SMILES	MIC (E. faecalis 29212)	MIC (S. pyogenes 19615)	MIC (S. haemo ATCC 29970)	MIC (S. aureus (MRSA) ST450)	MIC (S. pneumoniae 1256)	MIC (S. pneumoniae 1275)	MIC (E. faecalis 21777)	MIC (S. pneumoniae AB 29)	MIC (S. pneumoniae AB 17)	MIC (S pneumoniae 1294.)	MIC (S. epidermidis 358)	MIC [1]	MIC (S. aureus (Smith 49951))	MIC (S. pneumoniae AB-3)	MIC (S. pneumoniae CS1221)	MIC (S. pneumoniae AB 22)	MIC (S. pneumoniae ATCC 49619)	MIC (S. aureus ATCC29213)	MIC (S. pyogenes 25147)	MIC [2]	also measured
CC(=O)NC[C@H]1CN(c2ccc(N3CCN(c4cc(C(OC(C)=O)OC(C)=O)sc4[N+](=O)[O-])CC3)c(F)c2)C(=O)O1 [Compound No. 5, (S)—N-[[3-[3-Fluoro-4-[4-{3-thienyl(2-nitro)-5-acetyloxy}methylacetate]-1-piperazinyl]phenyl]-2-oxo-5-oxazolidinyl]acetamide]	2 µg/mL (≈ 3.37 µM)	0.5 µg/mL (≈ 0.842 µM)	<0.06 µg/mL	1 µg/mL (≈ 1.68 µM)	0.25 µg/mL (≈ 0.421 µM)	0.25 µg/mL (≈ 0.421 µM)	1 µg/mL (≈ 1.68 µM)	0.5 µg/mL (≈ 0.842 µM)	0.5 µg/mL (≈ 0.842 µM)	0.5 µg/mL (≈ 0.842 µM)	<0.06 µg/mL	>8 µg/mL	0.25 µg/mL (≈ 0.421 µM)	0.5 µg/mL (≈ 0.842 µM)	0.5 µg/mL (≈ 0.842 µM)	0.5 µg/mL (≈ 0.842 µM)	0.5 µg/mL (≈ 0.842 µM)	0.25 µg/mL (≈ 0.421 µM)	0.5 µg/mL (≈ 0.842 µM)	<0.06 µg/mL	MIC (E. faecium 398(VRE)): 1 µg/mL (≈ 1.68 µM); MIC ((MRSA) 562): 0.25 µg/mL (≈ 0.421 µM); MIC (S. pneumoniae CS 1687): 0.5 µg/mL (≈ 0.842 µM); MIC (S. pneumoniae AB-2): 0.25 µg/mL (≈ 0.421 µM); MIC (S. pneumoniae AB 34): 0.5 µg/mL (≈ 0.842 µM); MIC (E. faecalis SP 346 (VRE)): 2 µg/mL (≈ 3.37 µM); MIC (Salmonella 205): >8 µg/mL; MIC (S. pneumoniae AB 30): 0.5 µg/mL (≈ 0.842 µM); MIC (S. pneumoniae AB 25): 0.5 µg/mL (≈ 0.842 µM); MIC (S. aureus SG 511): 0.25 µg/mL (≈ 0.421 µM); MIC (P. aeruginosa ATCC 27853): >8 µg/mL
O=C(NC[C@H]1CN(c2ccc(N3CCN(c4ccc([N+](=O)[O-])s4)CC3)c(F)c2)C(=O)O1)C(Cl)Cl [compound 9, (S)—N-[[3-[-3-Fluoro-4-[N-1-(5-nitro-2-thienyl)-piperazinyl]phenyl] -2-oxo-5-oxazolidinyl]methyl]dichloroacetamide]	1 µg/mL (≈ 1.88 µM)	0.5 µg/mL (≈ 0.939 µM)	0.5 µg/mL (≈ 0.939 µM)	1 µg/mL (≈ 1.88 µM)	0.25 µg/mL (≈ 0.47 µM)	0.25 µg/mL (≈ 0.47 µM)	0.5 µg/mL (≈ 0.939 µM)	0.25 µg/mL (≈ 0.47 µM)	0.25 µg/mL (≈ 0.47 µM)	0.5 µg/mL (≈ 0.939 µM)	0.5 µg/mL (≈ 0.939 µM)	>8 µg/mL	0.5 µg/mL (≈ 0.939 µM)	0.25 µg/mL (≈ 0.47 µM)	0.25 µg/mL (≈ 0.47 µM)	0.25 µg/mL (≈ 0.47 µM)	0.25 µg/mL (≈ 0.47 µM)	2 µg/mL (≈ 3.76 µM)	0.5 µg/mL (≈ 0.939 µM)	0.5 µg/mL (≈ 0.939 µM)	MIC (E. faecium 398(VRE)): 0.5 µg/mL (≈ 0.939 µM); MIC ((MRSA) 562): 1 µg/mL (≈ 1.88 µM); MIC (S. pneumoniae CS 1687): 0.5 µg/mL (≈ 0.939 µM); MIC (S. pneumoniae AB-2): 0.25 µg/mL (≈ 0.47 µM); MIC (S. pneumoniae AB 34): 0.5 µg/mL (≈ 0.939 µM); MIC (E. faecalis SP 346 (VRE)): 0.5 µg/mL (≈ 0.939 µM); MIC (Salmonella 205): >8 µg/mL; MIC (S. pneumoniae AB 30): 0.25 µg/mL (≈ 0.47 µM); MIC (S. pneumoniae AB 25): 0.25 µg/mL (≈ 0.47 µM); MIC (S. aureus SG 511): 0.5 µg/mL (≈ 0.939 µM); MIC (P. aeruginosa ATCC 27853): >8 µg/mL
